Assay results published in article PMC12242638, “Drug Repurposing by Virtual Screening: Identification of New Already Approved ROCK Inhibitors as Promising Drugs to Target Neurodegeneration” (ACS Omega, 2025).
“Also recorded” adds a separate entry of the source.

Legend:
[1] = previously reported; cited from earlier work
hROCK2 = hROCK2 (Homo sapiens, UniProt O75116); test: HotSpot Kinase Assay, ROCK2 inhibition (Reaction Biology Corp.); assay type: biochemical
Procedure: (§1) The HotSpot Kinase Assay was used for compound screening on protein kinases, as already reported. The assay was performed in a base reaction buffer containing 20 mM Hepes (pH 7.5), 10 mM MgCl2, 1 mM EGTA, 0.01% Brij-35, 0.02 mg/mL BSA, 0.1 mM Na3VO4, 2 mM DTT, and 1% DMSO, with the required cofactors added individually to each kinase reaction. The substrate was prepared in freshly made base reaction buffer, and cofactors were added accordingly. The indicated kinase was then delivered into the substrate solution and gently mixed. Test compounds, dissolved in 100% DMSO, were added to the kinase reaction mixture using acoustic technology (Echo550; nanoliter range), followed by incubation for 20 min at room temperature. The reaction was initiated by adding ^33P-ATP (1 μM) and incubating for 2 h at room temperature. Kinase activity was detected using the P81 filter-binding method.

hROCK1 = hROCK1 (Homo sapiens, UniProt Q13464); test: HotSpot Kinase Assay, ROCK1 inhibition (Reaction Biology Corp.); assay type: biochemical
Procedure: as §1

ROCK2 = conditions: introduction, literature values; read-out: ROCK2 IC50 of approved ROCK inhibitors; cited from earlier work
ROCK1 = conditions: introduction, literature values; read-out: ROCK1 IC50 of approved ROCK inhibitors; cited from earlier work
[2] = tested on: mouse hippocampal neurons; conditions: primary cultures of mouse hippocampal neurons; cited from earlier work
[3] = tested on: murine primary astrocytes; test: GFAP and C3 immunocytochemistry in LPS-treated primary cortical astrocytes; assay type: cell-based, C57BL/6 mice (Mus musculus); conditions: 24 h; for C3 immunostaining in LPS-treated astrocyte cultures: 1 μM ruxolitinib, LPS 10 μg/mL
Procedure: Primary cortical astrocyte cultures were prepared from brains of P0–3 C57BL/6 mice as described by Matias et al. The meninges of the brain were removed to cortex desiccation in Gey’s buffer, and the cerebral cortex was maintained in DMEM/F12, supplemented with 10% FBS. […] After 24 h, cultures were washed and fixed.
Astrocyte cultures were fixed with 4% PFA in phosphate-buffered saline (PBS, pH 7.4) for 15 min, and nonspecific sites were blocked with 3% BSA, 5% normal goat serum, and 0.2% Triton X-100 diluted in PBS for 1 h, before incubation with the rabbit anti-GFAP (1:1,000, DAKO Cytomation, Cat. Z0334) and the rat anti-C3 (1:100, Abcam, Cat. ab11862) at 4 °C overnight. Subsequently, the cells were thoroughly washed with PBS and incubated with secondary antibodies at room temperature for 2 h.

SH-SY5Y cells = test: MTT cell viability, SH-SY5Y cell line; assay type: cell-based; conditions: 0.1 to 5 μM, 24 h
Procedure: (§2) Prior to the experiments, SH-SY5Y cells were cultured in DMEM/F12 plus 10% FBS (Fetal bovine serum, Invitrogene). […] The cells were incubated for 24 h under these conditions.
(§3) C6 and SH-SY5Y cells were plated in a 96-well plate with 1 × 10^4 cells per well. Cell morphology was observed using an EVOS phase-contrast microscope (Invitrogen, ThermoFisher Scientific, USA), and viability was evaluated using a 3-[4,5-dimethylthiazol-2-yl]-2,5-diphenyltetrazolium bromide (MTT) reduction assay. After 24 h of treatment, cells were incubated with 0.5 mg/mL MTT dye for 3 h at 37 °C and 5% CO2. This assay evaluates the labeling activity of mitochondrial dehydrogenases such as succinate dehydrogenase by reducing MTT (yellow) to a purple formazan salt. The culture media were removed, and the crystals were dissolved in 150 μL DMSO. The intensity of formazan was measured using a GloMax spectrophotometer (Promega) at a wavelength of 560 nm.

C6 cells = test: MTT cell viability, C6 glioma cell line; assay type: cell-based; conditions: 0.1 to 5 μM, 24 h
Procedure: as §2, §3

PKCα = PKCα (Homo sapiens, UniProt P17252); test: HotSpot Kinase Assay, AGC kinase selectivity, PKCα; assay type: biochemical
Procedure: as §1

Chain of hROCK1 (Q13464 whole entry): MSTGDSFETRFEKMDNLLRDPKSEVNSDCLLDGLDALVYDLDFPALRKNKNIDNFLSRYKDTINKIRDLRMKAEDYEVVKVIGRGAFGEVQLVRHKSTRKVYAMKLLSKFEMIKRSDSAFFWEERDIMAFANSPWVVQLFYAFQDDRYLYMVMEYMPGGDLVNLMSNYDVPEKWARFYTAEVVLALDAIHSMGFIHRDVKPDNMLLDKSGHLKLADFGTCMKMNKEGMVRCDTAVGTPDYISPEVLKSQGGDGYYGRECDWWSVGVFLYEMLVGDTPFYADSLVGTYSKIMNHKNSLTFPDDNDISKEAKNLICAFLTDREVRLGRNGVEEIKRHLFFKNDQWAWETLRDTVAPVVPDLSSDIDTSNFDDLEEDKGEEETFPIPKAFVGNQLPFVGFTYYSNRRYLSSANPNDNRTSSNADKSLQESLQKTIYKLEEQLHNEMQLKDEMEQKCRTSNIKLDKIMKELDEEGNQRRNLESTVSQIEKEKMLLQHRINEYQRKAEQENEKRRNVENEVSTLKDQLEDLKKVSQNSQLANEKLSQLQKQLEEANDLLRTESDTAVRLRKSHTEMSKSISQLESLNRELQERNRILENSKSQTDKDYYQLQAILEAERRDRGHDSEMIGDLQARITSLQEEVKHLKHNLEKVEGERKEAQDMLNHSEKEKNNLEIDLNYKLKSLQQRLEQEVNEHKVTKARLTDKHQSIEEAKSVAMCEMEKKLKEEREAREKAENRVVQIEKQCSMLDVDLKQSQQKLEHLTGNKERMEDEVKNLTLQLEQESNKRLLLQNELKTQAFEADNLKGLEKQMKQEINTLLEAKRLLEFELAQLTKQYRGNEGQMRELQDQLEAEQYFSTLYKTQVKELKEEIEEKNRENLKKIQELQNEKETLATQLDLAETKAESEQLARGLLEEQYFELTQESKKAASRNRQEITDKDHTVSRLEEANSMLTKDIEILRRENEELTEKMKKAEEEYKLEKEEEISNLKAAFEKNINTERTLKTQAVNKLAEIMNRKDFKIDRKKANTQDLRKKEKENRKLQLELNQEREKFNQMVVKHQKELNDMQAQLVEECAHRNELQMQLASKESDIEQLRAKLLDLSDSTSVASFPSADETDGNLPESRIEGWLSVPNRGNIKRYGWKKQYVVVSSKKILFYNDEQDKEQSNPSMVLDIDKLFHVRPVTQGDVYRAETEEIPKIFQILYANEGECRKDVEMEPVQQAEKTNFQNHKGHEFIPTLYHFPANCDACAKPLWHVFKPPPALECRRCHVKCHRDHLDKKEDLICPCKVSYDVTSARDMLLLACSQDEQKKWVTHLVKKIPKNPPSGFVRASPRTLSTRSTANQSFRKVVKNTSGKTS
Chain of hROCK2 (O75116 whole entry): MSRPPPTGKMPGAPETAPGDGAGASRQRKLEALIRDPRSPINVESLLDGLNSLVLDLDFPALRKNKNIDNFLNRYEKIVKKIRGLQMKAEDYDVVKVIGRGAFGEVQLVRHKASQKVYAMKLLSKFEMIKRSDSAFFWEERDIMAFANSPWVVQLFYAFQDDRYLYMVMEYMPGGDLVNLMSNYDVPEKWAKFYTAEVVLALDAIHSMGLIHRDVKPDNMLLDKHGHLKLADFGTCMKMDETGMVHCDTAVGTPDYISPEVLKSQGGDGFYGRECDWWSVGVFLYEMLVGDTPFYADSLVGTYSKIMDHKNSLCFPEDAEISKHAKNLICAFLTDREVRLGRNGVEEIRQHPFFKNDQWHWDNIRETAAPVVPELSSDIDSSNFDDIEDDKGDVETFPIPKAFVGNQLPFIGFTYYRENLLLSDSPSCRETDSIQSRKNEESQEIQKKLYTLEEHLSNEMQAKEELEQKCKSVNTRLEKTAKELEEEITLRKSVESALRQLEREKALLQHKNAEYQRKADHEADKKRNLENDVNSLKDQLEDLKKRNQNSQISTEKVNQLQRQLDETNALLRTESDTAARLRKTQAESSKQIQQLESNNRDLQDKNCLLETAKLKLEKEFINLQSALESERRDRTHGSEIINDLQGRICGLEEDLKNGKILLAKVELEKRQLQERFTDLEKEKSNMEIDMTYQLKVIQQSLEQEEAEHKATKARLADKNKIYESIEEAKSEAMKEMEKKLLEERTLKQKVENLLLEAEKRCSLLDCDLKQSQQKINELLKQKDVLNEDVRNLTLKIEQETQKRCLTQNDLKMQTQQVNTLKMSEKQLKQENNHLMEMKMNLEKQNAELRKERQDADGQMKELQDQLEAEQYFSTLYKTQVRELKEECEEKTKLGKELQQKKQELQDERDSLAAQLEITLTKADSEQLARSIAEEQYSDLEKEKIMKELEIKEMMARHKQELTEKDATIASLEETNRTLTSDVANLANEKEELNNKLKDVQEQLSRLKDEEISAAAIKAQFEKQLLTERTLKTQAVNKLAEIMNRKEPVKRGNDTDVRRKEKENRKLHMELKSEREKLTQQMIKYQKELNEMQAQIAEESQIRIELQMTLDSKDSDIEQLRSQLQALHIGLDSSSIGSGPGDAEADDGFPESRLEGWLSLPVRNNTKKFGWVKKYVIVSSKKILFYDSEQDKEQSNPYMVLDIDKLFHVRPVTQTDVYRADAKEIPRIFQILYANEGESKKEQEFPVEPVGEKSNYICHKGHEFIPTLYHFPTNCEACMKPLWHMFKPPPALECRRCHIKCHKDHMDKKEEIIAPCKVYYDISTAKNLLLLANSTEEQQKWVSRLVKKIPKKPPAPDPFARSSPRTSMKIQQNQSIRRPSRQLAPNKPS

Row | IC50 (hROCK2) [nM] | IC50 (hROCK1) [nM] | SMILES | IC50 (ROCK2) [nM] | IC50 (ROCK1) [nM] | also measured
1 | 29200 | 18800 | O=C(CCNNC(=O)c1ccncc1)NCc1ccccc1 [Nialamide (40), nialamide] | – | – | –
2 | 856 | 12900 | COc1cc2nccc(Oc3ccc(NC(=O)Nc4cc(C)on4)c(Cl)c3)c2cc1OC [Tivozanib (39), tivozanib] | – | – | selectivity for ROCK2 over ROCK1 (hROCK2; from the IC50 values): 15 fold
3 | 18600 | 51500 | Cc1cc(Nc2ncnc3ccc(NC4=NC(C)(C)CO4)cc23)ccc1Oc1ccn2ncnc2c1 [Tucatinib (41), tucatinib] | – | – | –

Further lines, the compound ahead of its results:

Row | SMILES | IC50 (hROCK2) [nM] | IC50 (hROCK1) [nM] | IC50 (ROCK2) [nM] | IC50 (ROCK1) [nM] | also measured
4 | CCS(=O)(=O)N1CC(CC#N)(n2cc(-c3ncnc4[nH]ccc34)cn2)C1 [Baricitinib (37), baricitinib] | 11 | 19 | – | – | crossing of the blood-brain barrier (BBB) [1]: cross the blood-brain barrier (BBB)
6 | O=C1CCc2cc(OCCCCc3nnnn3C3CCCCC3)ccc2N1 [Cilostazole] | – | – | – | – | ROCK2 % (30 µM), printed under IC50 ROCK2 head (hROCK2; 30 µM): 8%; ROCK1 % (30 µM), printed under IC50 ROCK1 head (hROCK1; 30 µM): 3%
7 | O=S(=O)(c1cccc2cnccc12)N1CCCNCC1 [Fasudil (2), Fasudil] | – | – | – | […] | levels of Tau phosphorylation [2]: decreased the levels of Tau phosphorylation
9 | C[C@H]1CNCCCN1S(=O)(=O)c1cccc2cncc(F)c12 [Ripasudil (3), Ripasudil] | – | – | 19 | 51 | –
10 | N#CC[C@H](C1CCCC1)n1cc(-c2ncnc3[nH]ccc23)cn1 [Ruxolitinib (36), ruxolitinib] | – | – | – | – | C3 immunostaining in LPS-treated astrocyte cultures ([3]; listed as ruxolitinib): decreased C3 immunostaining; also recorded: reversed this event; C3 immunostaining in LPS-treated astrocyte cultures ([3]; listed as ruxolitinib (36)): reduce C3 immunolabeling; GFAP intermediate filament organization and process extension of astrocytes ([3]; 1 μM): did not impact intermediate filament organization and process extension; cell viability (MTT), SH-SY5Y (neuronal cell line) (SH-SY5Y cells; listed as ruxolitinib): No significant impact on the viability; cell viability (MTT), SH-SY5Y (neuronal cell line) (SH-SY5Y cells; listed as ruxolitinib (36)): did not adversely affect the viability; also recorded: does not affect the viability; cell viability (MTT), C6 glioma (astrocytic cell line) (C6 cells; listed as ruxolitinib): No significant impact on the viability; cell viability (MTT), C6 glioma (astrocytic cell line) (C6 cells; listed as ruxolitinib (36)): did not adversely affect the viability; also recorded: does not affect the viability; crossing of the blood-brain barrier (BBB) [1]: cross the blood-brain barrier (BBB); IC50 (PKCα): 1250 nM
